Data as given in BindingDB's records for doi:10.1021/jm1002827 (Pfizer, 2010).

Target: T1, Estrogen receptor (Homo sapiens, UniProt P03372)
T1 sequence (P03372 whole entry): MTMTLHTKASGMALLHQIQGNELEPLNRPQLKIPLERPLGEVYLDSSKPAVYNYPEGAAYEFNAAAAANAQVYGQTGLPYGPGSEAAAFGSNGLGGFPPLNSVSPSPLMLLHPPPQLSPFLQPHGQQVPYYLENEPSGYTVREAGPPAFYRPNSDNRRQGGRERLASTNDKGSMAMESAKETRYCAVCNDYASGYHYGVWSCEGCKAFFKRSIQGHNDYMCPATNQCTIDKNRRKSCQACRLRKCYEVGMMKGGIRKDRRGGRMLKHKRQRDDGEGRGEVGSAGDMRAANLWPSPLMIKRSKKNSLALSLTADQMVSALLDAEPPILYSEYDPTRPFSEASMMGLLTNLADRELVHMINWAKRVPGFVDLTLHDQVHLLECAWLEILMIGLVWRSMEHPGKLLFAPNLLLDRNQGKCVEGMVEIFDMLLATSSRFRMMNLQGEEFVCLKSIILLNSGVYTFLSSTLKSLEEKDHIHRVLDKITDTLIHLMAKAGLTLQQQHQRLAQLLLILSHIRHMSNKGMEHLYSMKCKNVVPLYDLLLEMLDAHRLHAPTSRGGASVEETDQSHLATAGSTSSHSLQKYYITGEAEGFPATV
Test: Inhibition of estrogen receptor

| IC50 [µM] | Compound |
| --- | --- |
| > 10 | CCCC1=C(C(=O)OCC)[C@H](c2ccnc3ccccc23)C(C#N)C(C)=N1 (stereo partly drawn) [(R)-Ethyl 5-Cyano-6-methyl-2-propyl-4-quinolin-4-yl-1,4-dihydropyridine-3-carboxylate] |
| > 10 | CC1=NC(C)=C(C(=O)OC(C)(C)C)[C@H](c2ccc(F)cc2Cl)C1C#N (stereo partly drawn) [tert-Butyl (4R)-4-(2-Chloro-4-fluorophenyl)-5-cyano-2,6-dimethyl-1,4-dihydropyridine-3-carboxylate] |
